Patent US20250275995A1, “NICOTINAMIDE RIBOSIDE DOSAGE REGIMEN FOR TREATING PARKINSON'S DISEASE” (VESTLANDETS INNOVASJONSSELSKAP AS (VIS), priority 2022, published 2025)

Columns and labels:
Type in all cases: in vivo, human
Parkinson's Disease (PD) [1] = experiment: NADPARK: clinical severity by MDS-UPDRS
Description: The present inventors completed a phase I randomized, double blinded trial, aiming to assess the tolerability, cerebral bioavailability and molecular effects of NR therapy in PD. A total of 30 individuals with newly diagnosed, drug-naïve PD were randomized to NR 500 mg×2/day or placebo for 30 days (Cell Metab. 2022 Mar. 1; 34(3):396-407.e6).
NR is associated with clinical improvement of PD. NR at 1000 mg daily was associated with a significant decrease in the total MDS-UPDRS (I-III) score between visits (mean decrease: 2.33±2.35; paired t-test: p=0.017).

Parkinson's Disease (PD) [2] = experiment: NR-SAFE: MDS-UPDRS and Hoehn and Yahr scores
Description: At screening for trial entry, candidates underwent physical and neurological examination. Enrolled participants were assessed by physical visits by a movement disorder specialist at baseline (visit 1, V1), day 7 (V4), day 14 (V5), day 21 (V6) and day 28 (V7). At baseline and day 28 participants underwent additional assessment with the Movement Disorder Society Unified Parkinson's disease Rating Scale section I-IV (MDS-UPDRS). At all physical visits an electrocardiogram (ECG), vital parameters (blood pressure, pulse, weight, height) and blood samples were obtained. Additional blood samples were taken on day 3 (V2) and day 5 (V3) to assess safety. The participants were interviewed by telephone consultation by a study nurse on day 3 and day 35 to screen for additional adverse events. Participants were instructed to take their anti-Parkinson drugs as they normally would and no changes were made to anti-Parkinson drug treatment during the trial. Adverse events (AEs) were recorded by the investigating physician. These were then classified by severity according to the Common Terminology Criteria for Adverse Events v5.0 (CTCAE)^13 as either mild (1), moderate (2), severe (3), life-threatening (4) or death (5). The AE relation to the study drug was scored as unrelated (1), unlikely (2), possible (3), probable (4) or definitely (5). 13 Freites-Martinez, A., Santana, N., Arias-Santiago, S. & Viera, A. Using the Common Terminology Criteria for Adverse Events (CTCAE—Version 5.0) to Evaluate the Severity of Adverse Events of Anticancer Therapies. Actas Dermosifiliogr (Engl Ed) 112, 90-92 (2021).

[3] = NR-SAFE: clinical laboratory values from blood samples (serum)
Description: Analysis of clinical laboratory values from blood samples was performed by the Department of Medical Biochemistry and Pharmacology (MBF) at Haukeland University Hospital, Bergen, Norway.

blood NAD^+ levels = experiment: NAD-brain pharmacokinetic study: whole blood NAD+ response
Description: The NAD-brain study performs a parallel assessment of NAD replenishment therapy pharmacokinetics in the blood and brain of healthy human subjects and subjects with Parkinson's disease (PD). A total of 10 healthy individuals (5 men and 5 women) and 10 individuals with PD (5 men and 5 women) undergo repeated blood sampling and 31P-MRS brain scans during two 20-day periods, each of which starts with 8 days of daily intake of NR 600 mg×2, or NMN 600 mg×2. The two 20-day period is 14 days apart to allow for washout of the previous compound. Blood is analyzed for NR and NAD-metabolites using HPLC-MS. By this approach, we measured the simultaneous change in NAD-metabolism overtime in blood and brain and establish blood and brain pharmacokinetics for NAD replenishment therapy in humans.
NR (Niagen®, Chromadex) at a dose of 600 mg×2 daily). NMN (Restorin®, from Seragon Pharmaceutics, or MIB-626 from Metro International Biotech) at a dose of 600 mg×2 daily.
• At screening, participants are assessed for eligibility, inclusion/exclusion criteria, medical history and concomitant medication is recorded, and informed consent signed. • The NAD-brain study performs a parallel assessment of NAD replenishment therapy pharmacokinetics in the blood and brain of healthy human subjects and subjects with Parkinson's disease (PD). Healthy individuals and individuals with PD undergo repeated blood sampling and 31P-MRS brain scans during two 20-day periods, each of which starts with 8 days of daily intake of NR 600 mg×2, or NMN 600 mg×2 (Table 10). • For each 20-day period the testing (i.e., scanning and blood draw) frequency is shown in Table 10, below. The two 20-day periods are 14 days apart to allow for washout of the previous compound.
Blood is analyzed for NR and NAD-metabolites using HPLC-MS metabolomics. Snap-frozen whole blood is used for the analysis of NAD^+. Blood is drawn from the participant in EDTA tube (VACUETTE® TUBE 2 ml K2E K2EDTA). The EDTA tube is gently inverted at least 10 times without shaking; 8×200 μl of blood from the EDTA tube is aliquoted into 8×0.5 ml micro tubes; these are closed, and all the micro tubes are immerse simultaneously in liquid nitrogen within 2 min from when blood has started flowing into the EDTA tube; then transferred frozen to −80° C. freezer for storage; stored at −80C in freezer-compatible cardboard or plastic storage boxes; and shipped on dry ice.
This is a pharmacokinetic (PK) study where 6 healthy individuals (3 male and 3 female): • 1) Received NR 1200 mg daily (600 mg×2) for 8 days, followed by an additional 11 days follow up, while undergoing serial blood and brain NAD-measurement. • 2) Received NMN 1200 mg daily (600 mg×2) for 8 days, followed by an additional 11 days follow up, while undergoing serial blood and brain NAD-measurement.
The individuals were mixed, so that in stage-1 three individuals received NR and three individuals received NMN, then in stage-2 they switched (Cross-over design). There were almost three weeks (20 days) of washout between the last dose of the first compound, and before the first dose of the second compounds.

[4] = V1 (baseline), NR 3000 mg daily group, ±sd
[5] = V7 (day 28), NR 3000 mg daily, ±sd

NC(=O)c1ccc[n+]([C@@H]2O[C@H](CO)[C@@H](O)[C@H]2O)c1 [NR, nicotinamide riboside]
mean decrease in total MDS-UPDRS (I-III) score between visits (Parkinson's Disease (PD) [1]; NR 1000 mg daily, as stated in first sentence): 2.33±2.35 | change in MDS-UPDRS (total or subsections I-III) (Parkinson's Disease (PD) [1]; NR 1000 mg daily, whole NR group): No significant change | mean decrease in MDS-UPDRS (Parkinson's Disease (PD) [1]; nine individuals showing >10% increase in cerebral NAD levels): 2.33±2.35 | mean decrease in MDS-UPDRS (Parkinson's Disease (PD) [1]; subgroup of ten NR-recipients with increased cerebral NAD levels): 1.9±2.78 | clinical symptoms of PD, measured by MDS-UPDRS (Parkinson's Disease (PD) [2]; NR 3000 mg daily, 4 weeks): significantly improved clinical symptoms of PD | Hoehn & Yahr score (Parkinson's Disease (PD) [2]; [4]): 2 ± 0.66 | MDS-UPDRS Part I (Parkinson's Disease (PD) [2]; [4]): 7.8 ± 5.37 | MDS-UPDRS Part II (Parkinson's Disease (PD) [2]; [4]): 9.4 ± 6.25 | MDS-UPDRS Part III (Parkinson's Disease (PD) [2]; [4]): 29.7±12.85 | MDS-UPDRS Part IV (Parkinson's Disease (PD) [2]; [4]): 4.1 ± 4.88 | Total MDS-UPDRS (Parkinson's Disease (PD) [2]; [4]): 51±21.28 | total MDS-UPDRS, subgroup (Parkinson's Disease (PD) [2]; V1, subgroup of 8 participants with similar intervals since last levodopa dose, NR 3000 mg daily): 46.62±17.76 | Hoehn & Yahr score (Parkinson's Disease (PD) [2]; [5]): 2.1 ± 0.31 | MDS-UPDRS Part I (Parkinson's Disease (PD) [2]; [5]): 5.6 ± 5.01 | MDS-UPDRS Part II (Parkinson's Disease (PD) [2]; [5]): 8.8 ± 7.58 | MDS-UPDRS Part III (Parkinson's Disease (PD) [2]; [5]): 22.7±7.55 | MDS-UPDRS Part IV (Parkinson's Disease (PD) [2]; [5]): 3.2 ± 3.15 | Total MDS-UPDRS (Parkinson's Disease (PD) [2]; [5]): 40.3±17.1 | total MDS-UPDRS, subgroup (Parkinson's Disease (PD) [2]; V7, subgroup of 8 participants with similar intervals since last levodopa dose, NR 3000 mg daily): 35.75±11.74 | total MDS-UPDRS mean change, subgroup (Parkinson's Disease (PD) [2]; V7−V1, subgroup of 8 participants with similar intervals since last levodopa dose, NR 3000 mg daily): −10.87±11.15 | Hoehn & Yahr score, Δ (Parkinson's Disease (PD) [2]; Δ=V7−V1, NR 3000 mg daily, ±sd): 0.1 ± 0.56 | MDS-UPDRS Part I, Δ (Parkinson's Disease (PD) [2]; Δ=V7−V1, NR 3000 mg daily, ±sd): −2.2 ± 3.52 | MDS-UPDRS Part II, Δ (Parkinson's Disease (PD) [2]; Δ=V7−V1, NR 3000 mg daily, ±sd): −0.6 ± 2.36 | MDS-UPDRS Part III, Δ (Parkinson's Disease (PD) [2]; Δ=V7−V1, NR 3000 mg daily, ±sd): −7 ± 7.98 | MDS-UPDRS Part IV, Δ (Parkinson's Disease (PD) [2]; Δ=V7−V1, NR 3000 mg daily, ±sd): −0.9 ± 2.60 | Total MDS-UPDRS, Δ (mean change) (Parkinson's Disease (PD) [2]; Δ=V7−V1, NR 3000 mg daily, ±sd): −10.7±9.94 | clinical symptoms related to the observed HCy increase ([3]; NR 3000 mg daily, 4 weeks): No participants developed any clinical symptoms | increase in triglycerides, total cholesterol and LDL ([3]; NR 3000 mg daily, 4 weeks): no such effects | serum folic acid, methylmalonic acid and vitamin B12 ([3]; NR 3000 mg daily, 4 weeks): remained unchanged | serum triglyceride levels ([3]; NR group, 3000 mg daily, 4 weeks): nominal trend for a reduction in serum triglyceride levels | change in serum HCy at second visit ([3]; V2, day 3 of treatment, vs baseline, NR 3000 mg daily): +2.29±1.72 μmol/L | change in serum HCy after second visit until end of study ([3]; V2 to V7, NR 3000 mg daily): -0.63 ± 1.76 µmol/L | serum HCy levels relative to normal range ([3]; most participants, NR 3000 mg daily): remained within normal range | change in serum homocysteine levels, last visit vs baseline ([3]; Δ V7−V1, NR 3000 mg daily): +1.66±0.63 μmol/L | blood NAD^+ levels (blood NAD^+ levels; 1200 mg daily (600 mg×2) for 8 days, 6 healthy individuals): increased in all individuals | blood NAD^+ response, NR compared with NMN (blood NAD^+ levels; 1200 mg daily (600 mg×2) for 8 days, cross-over): stronger than the NMN response | day of maximal NAD levels in the blood (blood NAD^+ levels; 1200 mg daily for 8 days, last dose morning of day 8): 9 days | time to reach a steady heightened state of NAD-metabolism in blood and brain (blood NAD^+ levels; NR supplementation): more than 8 days | plateau of blood NAD^+ levels (blood NAD^+ levels; after 8 days of precursor intake, 1200 mg daily): did not plateau after 8 days
